Laboratory results published in ChEMBL document CHEMBL4651402, “Screening of ~5500 FDA-approved drugs and clinical candidates for anti-SARS-CoV-2 activity” (2021).

System: SARS-CoV-2
Assay: microbe, parasite or virus in culture
Conditions: Severe acute respiratory syndrome coronavirus 2, Vero C1008, 48 h

Structure (SMILES)	IC50	IC50 (read-out: pIC50 (converted))
O=C(/C=C/c1ccc(O)c(O)c1)O[C@H](Cc1ccc(O)c(O)c1)C(=O)O [ROSMARINIC ACID]	> 20 µM	> 20 µM
CCn1cc(C(=O)O)c(=O)c2ccc(-c3ccncc3)cc21 [ROSOXACIN]	> 20 µM	> 20 µM
C[C@]12CC[C@H](O)C[C@H]1CC[C@@H]1[C@@H]2CC[C@]2(C)[C@@](O)(c3ccoc3)CC[C@]12O [ROSTAFUROXIN]	> 20 µM	> 20 µM
CN(C)CCO[C@@H](c1ccc(Cl)cc1)c1ccccn1 [ROTOXAMINE]	> 20 µM	> 20 µM
Cc1nc(C(=O)NCC(=O)O)c(O)c2ccc(Oc3ccccc3)cc12 [ROXADUSTAT]	> 20 µM	> 20 µM
O=[N+]([O-])c1cc([As](=O)(O)O)ccc1O [ROXARSONE]	> 20 µM	> 20 µM
Oc1ccc2[nH]cc(CCCCN3CC=C(c4ccccc4)CC3)c2c1 [ROXINDOLE]	> 20 µM	> 20 µM
CC[C@H]1OC(=O)[C@H](C)[C@@H](O[C@H]2C[C@@](C)(OC)[C@@H](O)[C@H](C)O2)[C@H](C)[C@@H](O[C@@H]2O[C@H](C)C[C@H](N(C)C)[C@H]2O)[C@](C)(O)C[C@@H](C)/C(=N\OCOCCOC)[C@H](C)[C@@H](O)[C@]1(C)O [ROXITHROMYCIN]	> 20 µM	> 20 µM
CN1C(=O)CC2(CCN(CCCC(=O)c3ccc(F)cc3)CC2)C1=O [ROXOPERONE]	> 20 µM	> 20 µM
CC[C@@]1(O)C(=O)OCc2c1cc1n(c2=O)Cc2cc3c([N+](=O)[O-])cccc3nc2-1 [RUBITECAN]	> 20 µM	> 20 µM
CN(C)C[C@@H]1CCn2cc(c3ccccc32)C2=C(C(=O)NC2=O)c2cn(c3ccccc23)CCO1 [RUBOXISTAURIN]	> 20 µM	> 20 µM
CNCc1ccc(-c2[nH]c3cc(F)cc4c3c2CCNC4=O)cc1 [RUCAPARIB]	> 20 µM	> 20 µM
NC(=O)c1cn(Cc2c(F)cccc2F)nn1 [RUFINAMIDE]	> 20 µM	> 20 µM
N#CC[C@H](C1CCCC1)n1cc(-c2ncnc3[nH]ccc23)cn1 [RUXOLITINIB]	> 20 µM	> 20 µM
CCOC(=O)c1cncn1[C@@H](C)c1ccccc1 [S-ETOMIDATE]	> 20 µM	> 20 µM
CN(c1nc2ccccc2s1)C1CCN(CC(O)COc2ccc(F)cc2)CC1 (configuration not stated) [SABELUZOLE]	> 20 µM	> 20 µM
O=C1NS(=O)(=O)c2ccccc21 [SACCHARIN]	> 20 µM	> 20 µM
CCOC(=O)[C@H](C)C[C@@H](Cc1ccc(-c2ccccc2)cc1)NC(=O)CCC(=O)O [SACUBITRIL]	> 20 µM	> 20 µM

Structure (SMILES)	IC50	IC50 (read-out: pIC50 (converted))
OCC(O)Cc1ccc2c(c1)OCO2 (configuration not stated) [SAFROLGLYCOL]	> 20 µM	> 20 µM
CC(=O)NC(=O)c1ccccc1O [SALACETAMIDE]	> 20 µM	> 20 µM
OCc1ccccc1O[C@@H]1O[C@H](CO)[C@@H](O)[C@H](O)[C@H]1O [SALICIN]	> 20 µM	> 20 µM
NC(=O)c1ccccc1O [SALICYLAMIDE]	> 20 µM	> 20 µM
O=C(Nc1ccccc1)c1ccccc1O [SALICYLANILIDE]	> 20 µM	> 20 µM
O=C(O)c1ccccc1O [SALICYLIC ACID]	> 20 µM	> 20 µM
O=C(N/N=C/c1ccccc1O)c1ccncc1 [SALINAZID]	> 20 µM	> 20 µM
CC(C)=CCC/C(C)=C/CC/C(C)=C/CSc1ccccc1C(=O)O [SALIRASIB]	> 20 µM	> 20 µM
O=C(Oc1ccccc1C(=O)O)c1ccccc1O [SALSALATE]	> 20 µM	> 20 µM
COc1cc2c(cc1O)CCNC2C (configuration not stated) [SALSOLINE]	> 20 µM	> 20 µM
CC1=C2[C@H]3OC(=O)[C@@H](C)[C@@H]3CC[C@@]2(C)C=CC1=O [SANTONIN]	> 20 µM	> 20 µM
CC(C)n1nc(-c2ccc3oc(N)nc3c2)c2c(N)ncnc21 [SAPANISERTIB]	> 20 µM	> 20 µM
CNC(=O)CN1CCC(Oc2cc3c(Nc4cccc(Cl)c4F)ncnc3cc2OC)CC1 [SAPITINIB]	> 20 µM	> 20 µM
C[C@H](O)[C@H](O)[C@H]1CNc2nc(N)[nH]c(=O)c2N1 [SAPROPTERIN]	> 20 µM	> 20 µM
CN1CCN(CCOc2cc(OC3CCOCC3)c3c(Nc4c(Cl)ccc5c4OCO5)ncnc3c2)CC1 [SARACATINIB]	> 20 µM	> 20 µM
O=C(O)c1cn(-c2ccc(F)cc2)c2cc(N3CCNCC3)c(F)cc2c1=O [SARAFLOXACIN]	> 20 µM	> 20 µM
CNCC(=O)O [SARCOSINE]	> 20 µM	> 20 µM
CON(C)Cc1ccc(O)c2c1C[C@H]1C[C@H]3[C@H](N(C)C)C(O)=C(C(N)=O)C(=O)[C@@]3(O)C(O)=C1C2=O [SARECYCLINE]	> 20 µM	> 20 µM
